{
  "source": "patent US8039444B2",
  "about": "“Antisense permeation enhancers” (Isis Pharmaceuticals, Inc., priority 2001, dated 2011)",
  "details": "monkey, not told, po",
  "data": [
    {"sequence": "GCTGATTAGAGAGAGGTCCC (GCTGATTAGAGAGAGGTCCC; chemistry not given here) [antisense oligonucleotide]", "values": [
      {"measurement": "permeability", "result": "poor permeability"}
    ]}
  ]
}
